pIC50: −log10 of the molar value. Where two headings read alike, the source gives them in different places.
Tests used:
[1] = target: T1, CIB1 and αIIb interaction (CIB1-GST : F-αIIb peptide) (Homo sapiens, UniProt Q99828); test: FP assay, 1536-well qHTS format (primary and confirmatory screen); assay type: binding; conditions: for IC50: read-out: IC50 [μM] (confirmatory screen)
T1 construct: made in house; host or cells: BL-21 plus RIL cells (E. coli)
T1 sequence (Q99828 1-191): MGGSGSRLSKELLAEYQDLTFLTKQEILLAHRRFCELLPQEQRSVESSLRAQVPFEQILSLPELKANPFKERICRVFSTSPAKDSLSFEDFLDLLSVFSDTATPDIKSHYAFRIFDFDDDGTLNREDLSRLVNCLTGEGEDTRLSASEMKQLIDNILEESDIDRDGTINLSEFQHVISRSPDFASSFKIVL

[2] = target: T2, GST-CIB1 : F-scrambled peptide (Homo sapiens, UniProt Q99828); test: FP scrambled-peptide counter screen, 1536-well format; assay type: binding; conditions: for IC50: read-out: IC50 [μM] (counterscreen)
T2 construct: made in house; host or cells: BL-21 plus RIL cells (E. coli)
T2 sequence (Q99828 1-191): T1 sequence (Q99828 1-191)

[3] = Table S3, confirmatory screen, YES/NO call
[4] = Table S3, confirmatory screen, qHTS curve class, a negative sign marks inhibitory curves
[5] = Table S3, confirmatory screen, negative = inhibition
[6] = qHTS primary screen hits, Table S2, negative = inhibition
[7] = qHTS primary screen hits, Table S2, negative sign = inhibitory curve, several classes where COUNT > 1
[8] = qHTS primary screen hits, Table S2, read-out: IC50
[9] = Table S3, counterscreen, qHTS curve class, a negative sign marks inhibitory curves
[10] = Table S3, counterscreen, negative = inhibition
[11] = qHTS FP screen hits, Table S2, negative = inhibition
[12] = qHTS FP screen hits, Table S2, one class per curve where COUNT > 1, negative sign = inhibitory curve
[13] = qHTS FP screen hits, Table S2, read-out: IC50
[14] = confirmatory screen, qHTS curve class, negative sign = inhibitory curve
[15] = counterscreen, qHTS curve class, negative sign = inhibitory curve
[16] = Table S3, counterscreen, YES/NO call
[17] = qHTS primary screen hits, Table S2, negative sign = inhibitory curve

SMILES	Curve Class (confirmatory screen) [1, 4]	Efficacy (%) (confirmatory screen) [1, 5]	Efficacy (%) [1, 6]	Curve Class [1, 7]	pIC50 [1, 8]	Curve Class (counterscreen) [2, 9]	Efficacy (%) (counterscreen) [2, 10]	IC50 ([2]; Table S3, counterscreen)	Efficacy (%) [1, 11]	pIC50 [1, 13]	Efficacy (%) (confirmatory screen) ([1]; confirmatory screen)	Confirm? (confirmatory screen) ([1]; confirmatory screen, YES/NO)	Curve Class (confirmatory screen) [1, 14]	IC50 ([1]; confirmatory screen)	Efficacy (%) (counterscreen) ([2]; counterscreen)	Curve Class (counterscreen) [2, 15]	IC50 ([2]; counterscreen)	other results
Nc1cccc2c1C(=O)N(C1CCC(=O)NC1=O)C2=O (centres unmarked) [NCGC00346551-01]	-2.2	-78%	-43%	-2.2	4.67	-2.1	-91%	44.7 µM										Confirm? (confirmatory screen) [1, 3]: YES; IC50 ([1]; Table S3, confirmatory screen): 50.1 µM
CC(=O)NC(Cc1ccccc1)C(=O)O (centres unmarked) [NCGC00042134-05]	4	0%				4	-35%		-47%	4.00								Curve Class [1, 12]: -2.2
Cn1cc(-c2[nH]c3cc(NC(=O)[C@H](N)C4CCCCC4)cc4c3c2C=NNC4=O)cn1 [NCGC00263132-02]	-2.2	-85%	-24%	-1.4	5.38	-2.1	-107%	79.4 µM										Confirm? (confirmatory screen) [1, 3]: YES; IC50 ([1]; Table S3, confirmatory screen): 50.1 µM
Cc1ccccc1NC(=O)CN1C(=O)N/C(=C\c2cn(-c3cccc(C(=O)O)c3)cn2)C1=O [NCGC00182400-01]	4	-21%				4	-14%		-24%	4.95								
C=CCNc1oc(-c2ccc(Cl)cc2)nc1C#N.O=C(O)C(F)(F)F [NCGC00183412-01]									-54%	4.30	-72%	YES	-2.2	31.6 µM	-30%	-1.2	12.6 µM	Curve Class [1, 12]: -2.2
CCN(CC)CCN(Cc1ccc(-c2ccc(C(F)(F)F)cc2)cc1)C(=O)Cn1c(SCc2ccc(F)cc2)nc(=O)c2c1CCC2 [NCGC00386337-05]									-54%	4.25	-65%	YES	-1.2	35.5 µM	-46%	-2.2	31.6 µM	Curve Class [1, 12]: -2.2
O=C(O)C(F)(F)F.O=C1Nc2ccccc2/C1=N/NC(=S)Nc1ccccc1 [NCGC00229542-01]			-27%	-1.4	5.00						-50%	YES	-1.4	3.2 µM	-34%	-1.2	4.5 µM	
O=C(O)c1cc(O)c2c(c1)C(=O)c1cccc(O)c1C2=O [NCGC00018199-06]			-32%	-2.2							-66%	YES	-1.2		-61%	-1.2		
Cc1ccsc1C1N=C(Nc2nc3ccccc3o2)NC2=C1C(=O)CCC2.O=C(O)C(F)(F)F (centres unmarked) [NCGC00189283-01]	4	-22%				-2.4	-34%	63.1 µM	-28%	5.10								Confirm? (counterscreen) [2, 16]: YES
CCNC(=O)c1ccc(-c2ccc3ncnc(N4CCOCC4)c3c2)o1.O=C(O)C(F)(F)F [NCGC00238377-01]			-23%	-2.4	4.55						-45%	YES	-1.4		-38%	-2.2	44.7 µM	
NC(=O)C1CCN(c2ncc(Br)s2)CC1 [NCGC00184919-01]	-2.1	-112%				-2.1	-127%	39.8 µM	-123%	4.40								Confirm? (confirmatory screen) [1, 3]: YES; IC50 ([1]; Table S3, confirmatory screen): 50.1 µM; Curve Class [1, 12]: -2.1
Cc1ccc(S(=O)(=O)Nc2cnccc2C(=O)Nc2ccc(-c3nnn[nH]3)cc2)cc1.O=C(O)C(F)(F)F [NCGC00343837-01]			-24%		4.50						-63%	YES	-2.4	35.5 µM	-40%	4		Curve Class [1, 17]: -2.4; Confirm? (counterscreen) ([2]; counterscreen, YES/NO): YES
C=C1[C@@H](C)[C@H]2[C@H](Cc3ccccc3)NC(=O)[C@]23OC(=O)/C=C/C(=O)CCC[C@@H](C)C/C=C/[C@H]3[C@@H]1O [NCGC00388356-01]									-73%	4.70	-94%	YES	-1.1	10 µM	-57%	-1.2	5.6 µM	Curve Class [1, 12]: -1.2
O=C(O)c1cc(/N=N/c2ccc(S(=O)(=O)Nc3ccccn3)cc2)ccc1O [NCGC00090903-09]	-1.2	-64%				-2.2	-61%	39.8 µM										Confirm? (confirmatory screen) [1, 3]: YES; IC50 ([1]; Table S3, confirmatory screen): 22.4 µM
CN1CCN(c2ccc(Nc3nn4c(=O)c5ccccc5nc4s3)cc2)CC1.O=C(O)C(F)(F)F [NCGC00186454-01]			-32%		4.90						-50%	YES	-2.2	50.1 µM	-37%	-2.4	79.4 µM	Curve Class [1, 17]: -1.4
Cc1ccc2nc3sc(C(=O)NCc4ccco4)cc3cc2c1.O=C(O)C(F)(F)F [NCGC00183968-01]			-24%	-1.4	5.15						-34%	YES	-1.2	15.8 µM	-27%	4		Confirm? (counterscreen) ([2]; counterscreen, YES/NO): YES
O=C(O)C(F)(F)F.O=C(c1ccc(-c2cc(O)c3ncccc3c2)cc1)N1CCNCC1 [NCGC00183806-01]	4	-11%	-40%		4.40	-1.2	-59%	35.5 µM										Curve Class [1, 17]: -2.2; Confirm? (counterscreen) [2, 16]: YES
CN(C)CCCCCCNC(=O)c1cccc(-c2cc(O)c3ncccc3c2)c1.O=C(O)C(F)(F)F [NCGC00247743-01]	4	-35%	-33%	-1.2	4.65	-2.4	-55%	44.7 µM										Confirm? (counterscreen) [2, 16]: YES
CCCC1CCN(C(=O)COC(=O)c2ccc(S(C)(=O)=O)c([N+](=O)[O-])c2)CC1 [NCGC00188533-01]									-25%	5.89								CONFIRMATORY SCREEN Confirm? ([1]; confirmatory screen, YES/NO call): YES; CONFIRMATORY SCREEN Curve Class [1, 14]: -1.4; CONFIRMATORY SCREEN Efficacy (%) ([1]; confirmatory screen, negative = inhibition): -28%; pIC50 ([1]; confirmatory screen, read-out: CONFIRMATORY SCREEN IC50): 5.60; COUNTERSCREEN Efficacy (%) ([2]; scrambled-peptide counterscreen): -28%; COUNTERSCREEN Confirm? ([2]; scrambled-peptide counterscreen, YES/NO call): YES; COUNTERSCREEN Curve Class ([2]; scrambled-peptide counterscreen, qHTS curve class): 4
O=C(O)C(F)(F)F.O=C1Nc2ccccc2/C1=N/NC(=S)Nc1ccc(C(=O)O)cc1 [NCGC00229530-01]	4	-47%				-1.2	-65%	12.6 µM	-32%	5.05								Confirm? (counterscreen) [2, 16]: YES
CC1=NN(c2ccc(C)c(C)c2)C(=O)/C1=N/Nc1cccc(-c2cccc(C(=O)O)c2)c1O [NCGC00274067-01]									-69%	4.35	-83%	YES	-2.2	22.4 µM	-37%	-1.2	35.5 µM	
